Measurements from patent publication US20260207668A1, “MANIPULATION OF ADRENERGIC RECEPTORS TO INFLUENCE IMMUNE CELL DIFFERENTIATION AND FUNCTION” (Salk Institute for Biological Studies, priority 2022, published 2026).

Columns and labels:
YUMMER1.7 melanomas = test: YUMMER1.7 melanoma in mice, beta-blocker alone or with ICB; type: in vivo; conditions: for cytokine production by CD8+ T cells: combination with ICB, tumor CD8+ T cells stimulated with PMA/ionomycin
ADRB1 = ADRB1 (Mus musculus, UniProt P34971); design: dose or concentration left out as unconfirmed; conditions: Adrb1 OE P14+ cells vs empty vector; for CD8+ T cell cytokine production: gp33 stimulation; for CD8+ T cell proliferation: up to 6 days of culture
Chain of ADRB1 (P34971 whole entry): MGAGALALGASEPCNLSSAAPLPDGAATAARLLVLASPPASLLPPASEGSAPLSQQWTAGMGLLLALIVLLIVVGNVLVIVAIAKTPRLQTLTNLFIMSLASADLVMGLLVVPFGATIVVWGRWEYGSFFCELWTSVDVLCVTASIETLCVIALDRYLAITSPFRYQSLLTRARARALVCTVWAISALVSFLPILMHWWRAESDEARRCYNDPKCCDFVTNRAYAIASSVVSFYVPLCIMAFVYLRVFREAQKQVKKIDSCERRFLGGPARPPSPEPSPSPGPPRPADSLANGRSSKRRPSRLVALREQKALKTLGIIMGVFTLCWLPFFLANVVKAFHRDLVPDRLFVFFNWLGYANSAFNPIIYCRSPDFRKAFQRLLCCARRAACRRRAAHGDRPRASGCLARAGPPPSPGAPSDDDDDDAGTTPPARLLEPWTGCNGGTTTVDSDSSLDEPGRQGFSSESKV

[1] = tested on: CD8+ T cells in PDAC tumors; test: scRNA Seq of tumor infiltrating T cells from PDAC tumors; type: in vivo, mice
Protocol: For scRNA Seq of PDAC tumors 4 tumors each per treatment condition were pooled and stained for sorting. The following cell populations were sorted into RPMI supplemented with 20% fetal bovine serum: Thy1.2^+ CD45.2^+ (T cells), Thy1.2^− CD45.2^+ (Non T cell leukocytes), YFP^+ CD45.2^− (tumor cells). Sorted cells were spun down at 420 rcf at 4° C. for 4 minutes, resuspended in PBS+2% fetal bovine serum and mixed at 8 k Thy1.2^+ CD45.2^+, 10 k Thy1.2^− CD45.2^+, 2 k YFP^+ CD45.2^− for a total of 20 k cells per sample.
Samples were then loaded onto Chromium Chip G (10× Genomics) and partitioned into Gel Bead-in-Emulsions using a chromium controller (10× Genomics). Single cell RNA libraries were generated following the manufacturer's instructions of the Chromium Next GEM Single Cell 3′ Reagent Kit v3.1 (10× Genomics) followed by sequencing on a NovaSeq6000 at the NGS Core of the Salk Institute. Cellranger count was used to align reads to the mm10 genome and YFP. The resulting counts matrix was then processed using the R package scran^54 and outlying cells identified with quickPerCellQC (stats, percent_subsets=“subsets_Mito_percent”) were discarded. Data was log normalized using quickCluster, computeSumFactors and logNormCounts. The top 10% most variable genes were calculated using modelGeneVarByPoisson and getTopHVGs and then used in the PCA calculation using denoisePCA. The top 50 principal components were used to calculate a UMAP dimensional reduction using the runUMAP function (metric=“cosine”, min_dist=0.3 and n_neighbors=30). Leiden clustering was performed with igraph's cluster_leiden (with resolution=0.05) after running buildSNNGraph (with k=25). Cell types were annotated using SingleR^55 and the ImmGenData labels as a reference using default parameters. For further analysis the dataset was filtered on T cells according to the SingleR labels and variable genes, PCA and UMAP were calculated with the same settings described above. Clustering of T cells was performed using cluster_leiden with the resolution set to 1.8. For visualization, data imputation was performed using MAGIC^56 using the exact solver. To assign biological relevance to the T cell clusters, a heatmap of the median log normalized expression (using aggregateAcrossCells) of selected markers was generated and visualized using ComplexHeatmap^57. Differential genes for the clusters were identified by performing pairwise comparison of one cluster against all other clusters using the findMarkers function (test.type=“binom”, lfc=0.1, direction=“up”). Gene signatures for T cell exhaustion and TRn cells were obtained from Wherry et al and Milner et al respectively^45,58 in addition to the MSigDB hallmark gene sets. Gene signature scores were calculated using AUCell^59 (aucMaxRank set to 5%). […]

PDAC tumors = test: Orthotopic PDAC (6419c5) in mice, beta-blocker alone or with ICB; type: in vivo; conditions: for tumor growth (abdominal ultrasound volume and tumor mass): in combination with ICB (anti-PD-1 + anti-CTLA-4); for tumor growth: agent alone
LCMV-clone 13 = type: in vivo, mice
ADRB1 vs. ADRB2 = conditions: relative to β1; cited from earlier work
[2] = gp33+ CD8+ T cells, d37 p.i., vs untreated

## Cn1cc(C(F)(F)F)nc1-c1ccc(OCC(O)CNCCOc2ccc(O)c(C(N)=O)c2)cc1 (stereo not shown) [CGP 20712A]
YUMMER1.7 melanomas
  cytokine production by CD8+ T cells: significantly increased

## NC[C@H](O)c1ccc(O)c(O)c1 [noradrenaline]
ADRB1
  CD8+ T cell cytokine production: impairs
  CD8+ T cell proliferation: impairs

## CC(C)NCC(O)COc1cccc2ccccc12 (stereo not shown) [propranolol]
[1]; combination treatment with ICB
  T cell clusters 1 and 5 (TRM-like and exhausted CD8+ T cells): enriched
  cytokine and chemokine production (Gzma, Tgfb1, Gzmb, Xcl1, Ccl3, Ccl4, Ifng, Prf1) of CD8+ T cells: enhanced
  signatures for T cell response, exhaustion and TRM: enriched
[1]; propranolol and ICB therapy
  upregulated genes in CD8+ T cells compared to the isotype control: 272 genes
PDAC tumors; beta-blocker alone vs IgG, PDAC tumors
  tumor cell proliferation (tumor expression of Ki67 relative to IgG, IHC): does not directly affect tumor cell proliferation
PDAC tumors; combination with ICB
  CD8+ T cells in the tumors: increase
PDAC tumors; combination with ICB, after PMA/ionomycin stimulation
  production of IFNγ and GZMB: increased production
PDAC tumors; combination with ICB, tumor CD8+ T cells
  expression of the activation/exhaustion markers PD-1 and TIM3: higher expression
PDAC tumors
  tumor growth (abdominal ultrasound volume and tumor mass): significantly reduced

## CC(C)NCC(O)COc1ccc(CC(N)=O)cc1 (stereo not shown) [atenolol]
LCMV-clone 13; after gp33 stimulation for 6 h, d37 p.i., vs untreated
  frequencies of IFNγ-, TNF- and GZMB-producing virus-specific CD8+ T cells: higher frequencies
LCMV-clone 13; atenolol 0.5 mg/ml in drinking water throughout infection vs untreated, spleen, d37 p.i.
  expansion of virus-specific CD8+ T cells that displayed features of TEXprog, at the expense of TEXeff and TEXterm: greater expansion
LCMV-clone 13; [2]
  amounts of CREM in virus-specific CD8+ T cells: lowered
  amounts of cAMP in virus-specific CD8+ T cells: lowered
LCMV-clone 13; serum of LCMV-clone 13-infected mice, vs untreated
  viral titers: lower viral titers
YUMMER1.7 melanomas; beta-blocker alone vs IgG, YUMMER tumors
  tumor cell proliferation (tumor expression of Ki67 relative to IgG, IHC): does not directly affect tumor cell proliferation
YUMMER1.7 melanomas; combination with ICB (anti-PD-1 + anti-CTLA-4)
  effects on differentiation of exhausted T cells: did not extend beyond those of the checkpoint therapy alone
YUMMER1.7 melanomas; combination with ICB (anti-PD-1 + anti-CTLA-4), compared to untreated or beta-blocker alone
  tumor size (normalized tumor mass relative to IgG control): significantly smaller
YUMMER1.7 melanomas
  cytokine production by CD8+ T cells: dramatically increased
ADRB1 vs. ADRB2
  block of the β2-adrenergic receptor: to a lower degree
PDAC tumors
  tumor growth: failed to suppress tumor growth
  tumor growth (abdominal ultrasound volume and tumor mass): failed to suppress tumor growth

## CNCC(O)c1ccc(O)c(O)c1 (stereo not shown) [adrenaline]
ADRB1
  CD8+ T cell cytokine production: impairs
  CD8+ T cell proliferation: impairs

## Cc1ccc(OCC(O)C(C)NC(C)C)c2c1CCC2 (stereo not shown) [ICI 11855135]
PDAC tumors
  tumor growth: failed to suppress tumor growth
  tumor growth (abdominal ultrasound volume and tumor mass): failed to suppress tumor growth
